The record followed here is the NIST ThermoML archive (doi:10.1021/je900283v).

Numbers after ± are expanded uncertainties.

A short description of series [1]: Molar enthalpy of transition or fusion. The note with it: Crystal; DSC.
The conditions of series [2]: Crystal; DTA.

As to `CC[C@@]1(O)C(=O)OCc2c1cc1n(c2=O)Cc2cc3cc(O)ccc3nc2-1`, the “Molar enthalpy of transition or fusion” value in series [1] is 12.8 ± 0.335 kcal/mol. Besides, the Normal melting temperature in series [2] amounted to 194.00 ± 1 °C.
